According to US10561638B2, “Methods for treating dependence” (Biotie Therapies, Inc., priority 2007, dated 2020):
Entries after “also recorded” stand apart in the source; their conditions may differ.

Assays:
[1] = target: protein kinase (non-selective); assay: Enzyme selectivity assay; type: biochemical
anesthetized beagle dogs = assay: Sympathetically-evoked responses in dogs after 4.5 days dosing; type: in vivo; settings: 10 mg/kg/d for 4.5 days
[2] = test system: tissue noradrenaline and dopamine content; assay: Tissue catecholamines in beagle dogs dosed b.i.d. for 5 days; type: in vivo; settings: for maximal increase in DA/NE ratio: 5 mg/kg b.i.d.; for decrease in noradrenaline / increase in dopamine: 5 mg/kg b.i.d. po
Description: Male beagle dogs (10-16 kg, Marshall Farms USA Inc, North Rose, N.Y., USA) were also used in in vivo studies. On the day of the study, dogs were weighed and randomly assigned to be orally dosed with either empty capsules (control) or the appropriate dose of nepicastat (0.05, 0.5, 1.5 or 5 mg·kg^−1; po, b.i.d.) for 5 days. At six hours following the first dose on day-5, the dogs were euthanized with pentobarbital and the tissues (cerebral cortex, renal artery, left ventricle) were rapidly harvested. The tissues were subsequently processed and analyzed for noradrenaline and dopamine.
Nepicastat was used in in vivo biochemical studies to study the effects in spontaneously hypertensive rats (SHRs) and normal beagle dogs. On the day of the study, the animals were weighed and randomly assigned to receive either placebo (vehicle) or the appropriate dose of nepicastat. Each rat was dosed orally three times, 12 h apart, beginning in the morning. At 6 h after the third dose, the rats were anesthetized with halothane, decapitated, and the tissues (cerebral cortex, mesenteric artery and left ventricle) were rapidly harvested, weighed, placed in iced 0.4 M perchloric acid, frozen in liquid nitrogen and stored at −70° C. until analysis. Tissue NE and DA concentrations were assayed by HPLC using electrochemical detection. Male beagle dogs (10-16 kg, Marshall Farms USA Inc, North Rose, N.Y.) were used in the study. On the day of the study, dogs were randomly assigned to receive either placebo (empty capsule) or the appropriate dose of nepicastat. Each dog was dosed twice a day for 4.5 days. 6 h after the first dose on day 5, the dogs were euthanized with pentobarbital and the tissues (cerebral cortex. renal artery, left ventricle) harvested, weighed, placed in iced 0.4 M perchloric acid, frozen in liquid nitrogen and stored at −70° C. until analysis. Tissue NE and DA concentrations were assayed by HPLC using electrochemical detection.

[3] = test system: tissue norepinephrine and dopamine levels; assay: Tissue catecholamines in SHRs after single dose (dose response, time course); type: in vivo, spontaneously hypertensive rats; settings: 6.2 mg/kg oral or i.v., 0.5 to 4 hours
[4] = Toxicity studies in dogs (acute, 1-month); type: in vivo
Description: Dose selection was based on data from two studies with nepicastat. […] In a 1-month study, doses of 5, 20, or 80 mg/kg were administered to dogs orally once daily.

CD-1 (ICR) mice = assay: Locomotor activity in mice, intraperitoneal; type: in vivo; settings: i.p.; nepicastat 3-100, SKF-102698 30 and 100, cocaine 30 mg/kg
Excerpt: Adult male CD-1 (ICR) mice (30-40 g on study day) were housed in groups of eight under a normal light/dark cycle with lights on between 0900 hr and 2100 hr. Food and water were allowed ad libitum. All animals were naive to drug treatment and behavioral testing. Each animal was only used once.
Locomotor activity was monitored in an automated 14 station activity monitoring system (San Diego Instrument Co.). Each station consisted of a clear perspex cage (25 cm×45 cm×20 cm; w×1×h) placed within a metal frame containing 3 photoemmitors and 3 photodetectors spaced equally along the length of the wall. The bottom of each cage was lightly covered in clean cedar bedding.
The mice were placed in the testing room at least 1 hr prior to testing. The mice were placed individually into one of the activity cages and allowed to explore for 30 min. […] Following a 60 minute pre-treatment period, motor activity was monitored for 180 minutes. Activity counts and ambulations (defined as a break of 2 consecutive photobeams) for each animal were recorded every 30 minutes.
A repeated measures two-way analysis of variance (ANOVA) was performed using the overall ranked data (nonparametric technique) to test for the overall effects of treatment, time interval and treatment by time interval interaction. […]

SMILES | IC50 [1] [µM] | blood pressure and heart rate increases in response to carotid artery occlusion (anesthetized beagle dogs) | blood pressure response to i.v. tyramine challenge (anesthetized beagle dogs) | heart rate response to i.v. tyramine challenge (anesthetized beagle dogs) | maximal increase in DA/NE ratio ([2]; cerebral cortex) [fold] | decrease in noradrenaline ([2]; cerebral cortex) [%] | increase in dopamine ([2]; cerebral cortex) [%] | maximal increase in DA/NE ratio ([2]; left ventricle) [fold] | decrease in noradrenaline ([2]; left ventricle) [%] | increase in dopamine ([2]; left ventricle) [%] | maximal increase in DA/NE ratio ([2]; renal artery) [fold] | decrease in noradrenaline ([2]; renal artery) [%] | increase in dopamine ([2]; renal artery) [%] | doses at which catecholamine changes attained significance (p<0.05) ([2]; renal artery, left ventricle, cerebral cortex) [mg/kg/day] | mesenteric artery catecholamines [3] | 1-month toxicity ([4]; 80 mg/kg/day orally once daily) | acute toxicity ([4]; single oral dose of 400 mg/kg) | total activity counts and ambulations vs vehicle (CD-1 (ICR) mice)
Cl.NCc1c[nH]c(=S)n1[C@H]1CCc2c(F)cc(F)cc2C1 [nepicastat, (S)-5-Aminomethyl-1-(5,7-difluoro-1,2,3,4-tetrahydronaphth-2-yl)-2,3-dihydro-2-thioxo-1H-imidazole hydrochloride] | > 10 | no statistically significant decrease | only slight and non-significant inhibition | significantly reduced the increase in heart rate | 80 | 96 | 166 | 151 | 91 | 700 | 95 | 88 | 627 | ≥ 0.1 | significantly decreased norepinephrine and increased dopamine and the dopamine/norepinephrine ratio | Clinical signs of toxicity were present | transient clinical signs of toxicity | 
Fc1cc(F)cc(Cn2cc[nH]c2=S)c1 [SKF-102698, reference compound] |  |  |  |  |  |  |  |  |  |  |  |  |  |  |  |  |  | no significant differences; also recorded: no significant effects
